ChEMBL document CHEMBL1201862, “PubChem BioAssay data set” (2004)
The source made the active and inactive calls.

Legend:
[1] = molecular target: Peroxisome proliferator-activated receptor gamma/Nuclear receptor coactivator 1 (Homo sapiens, UniProt P37231); type: functional;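 note: agonist potency as compounds enhance coactivator SRC-1 recruitment to PPARgamma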
[2] = molecular target: Transitional endoplasmic reticulum ATPase (Homo sapiens, UniProt P55072); assay: p97 ATPase inhibitors, dose response, biochemical (AID 1534)
[3] = molecular target: Peroxisome proliferator-activated receptor gamma/Nuclear receptor coactivator 2 (Homo sapiens, UniProt P37231); type: functional;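 note: agonist potency for raising coactivator recruitment to the receptor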
[4] = molecular target: Transitional endoplasmic reticulum ATPase (Homo sapiens, UniProt P55072, C522A); assay: C522A mutant p97 ATPase inhibitors, dose response, counter-screen for p97 inhibitor project, biochemical, luminescence (AID 1544)
[5] = molecular target: Peroxisome proliferator-activated receptor gamma/Nuclear receptor coactivator 3 (Homo sapiens, UniProt P37231); type: functional;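 note: agonist potency for raising coactivator recruitment to the receptor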
Estrogen receptor beta = Estrogen receptor beta (Homo sapiens, UniProt Q92731); assay: ERβ–SRC-3 coactivator interaction inhibitors, confirmation, orthogonal assay, biochemical, ELISA, streptavidin-HRP readout (AID 1060)
[6] = Artemis endonuclease inhibitor potency, dose response, biochemical, fluorescence intensity (AID 720701); type: functional;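 note: Artemis endonuclease enzyme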
Protein Tat = Protein Tat (Human immunodeficiency virus type 1 group M subtype B (isolate HXB2)(HIV-1), UniProt P04608); type: functional;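 note: tat binding to TAR RNA read out by fluorescence polarization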
[7] = inhibitors of Vif binding to APOBEC3G peptide, primary screen, biochemical, TR-FRET, GST-Vif 1-94, biotin-A3G peptide, dose response retest (AID 1117319); type: functional;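 note: TR-FRET signal of purified GST-Vif binding a biotinylated A3G peptide; inhibitors lower the FRET signal by blocking Vif and A3G binding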
[8] = molecular target: Dual specificity protein phosphatase 6 (Rattus norvegicus, UniProt Q64346); assay: MKP-3 phosphatase inhibitors, primary screen, biochemical, rat enzyme, in vitro (AID 425)
[9] = cytotoxicity in KRAS-transformed pancreatic duct cells, primary screen, cell-based, fluorescence, HTS (AID 431); type: functional; details: Homo sapiens;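 note: cell line used: HPDE-C7K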
[10] = cytotoxicity in HPDE-C7 cells, cell-based, fluorescence, HTS (AID 430); type: functional; details: Homo sapiens
[11] = THP-1 cell cytotoxicity, dose response, cytotoxicity control for Vif-APOBEC3G degradation inhibitor project, THP-1 cells (AID 1117359); type: functional; details: Human immunodeficiency virus 1, THP-1
Estrogen receptor = molecular target: T1, Estrogen receptor (Homo sapiens, UniProt P03372); assay: potentiators of ERα–SRC-1 coactivator binding, dose response, biochemical, TR-FRET, ERα LBD (AID 737)
T1 sequence (P03372 whole entry): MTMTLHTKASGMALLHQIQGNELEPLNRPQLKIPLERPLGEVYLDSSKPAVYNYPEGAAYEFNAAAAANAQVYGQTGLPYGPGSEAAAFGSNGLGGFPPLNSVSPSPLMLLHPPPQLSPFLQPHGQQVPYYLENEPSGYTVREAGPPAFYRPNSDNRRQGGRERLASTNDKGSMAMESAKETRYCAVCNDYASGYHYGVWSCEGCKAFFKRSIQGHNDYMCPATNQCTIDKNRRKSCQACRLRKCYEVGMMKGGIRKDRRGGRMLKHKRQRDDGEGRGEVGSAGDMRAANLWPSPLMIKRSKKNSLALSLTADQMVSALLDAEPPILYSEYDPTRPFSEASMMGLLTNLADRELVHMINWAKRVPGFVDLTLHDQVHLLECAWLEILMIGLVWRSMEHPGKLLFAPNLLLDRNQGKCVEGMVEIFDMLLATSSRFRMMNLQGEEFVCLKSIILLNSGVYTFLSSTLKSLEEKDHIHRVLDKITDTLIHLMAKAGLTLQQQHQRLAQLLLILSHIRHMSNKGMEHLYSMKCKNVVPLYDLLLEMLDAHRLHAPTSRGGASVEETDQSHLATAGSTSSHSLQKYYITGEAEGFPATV

[12] = molecular target: Neuropeptide Y receptor type 2 (Homo sapiens, UniProt P49146); type: functional, cell-based;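 note: HEK293 cells expressing the receptor and a CNG channel; stimulus was NPY near EC95 followed by isoproterenol to raise cAMP; antagonist potency measured as restoring cAMP signal that NPY suppresses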
[13] = molecular target: Neuropeptide Y receptor type 1 (Homo sapiens, UniProt P25929); type: functional;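 note: HEK293 cells with a CNG channel challenged with NPY then isoproterenol; potency as antagonist that reverses NPY suppression of cAMP signal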
[14] = molecular target: T2, Carboxy-terminal domain RNA polymerase II polypeptide A small phosphatase 1 (Homo sapiens, UniProt Q9GZU7); assay: inhibitors of CTDSP1, concentration-response testing, biochemical assay, absorbance-based, actives from ultra-high-throughput screening (AID 540297); type: functional
T2 sequence (Q9GZU7 whole entry): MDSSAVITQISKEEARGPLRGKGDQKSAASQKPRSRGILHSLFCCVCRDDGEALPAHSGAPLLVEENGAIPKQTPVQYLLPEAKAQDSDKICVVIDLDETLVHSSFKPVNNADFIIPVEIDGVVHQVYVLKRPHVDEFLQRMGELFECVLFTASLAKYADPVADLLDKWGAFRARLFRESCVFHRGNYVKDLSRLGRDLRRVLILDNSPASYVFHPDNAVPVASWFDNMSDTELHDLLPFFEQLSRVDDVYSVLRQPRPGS

[15] = molecular target: Induced myeloid leukemia cell differentiation protein Mcl-1 (Homo sapiens, UniProt Q07820); assay: MCL1-BIM BH3 interaction inhibitors, dose response, biochemical, fluorescence polarization, BIM-BH3 peptide, 1536-well (AID 2217)
Bcl-2-like protein 1 = Bcl-2-like protein 1 (Homo sapiens, UniProt Q07817); assay: BCL-XL inhibitors, dose response, selectivity assay for MCL1 inhibitor project, biochemical, fluorescence polarization, 1536-well (AID 2218)
Caspase-6 = molecular target: T3, Caspase-6 (Homo sapiens, UniProt P55212); assay: human caspase-6 inhibitors, dose response, biochemical, VEID-R110 fluorescence, cherry-pick (AID 720632)
T3 sequence (P55212 whole entry): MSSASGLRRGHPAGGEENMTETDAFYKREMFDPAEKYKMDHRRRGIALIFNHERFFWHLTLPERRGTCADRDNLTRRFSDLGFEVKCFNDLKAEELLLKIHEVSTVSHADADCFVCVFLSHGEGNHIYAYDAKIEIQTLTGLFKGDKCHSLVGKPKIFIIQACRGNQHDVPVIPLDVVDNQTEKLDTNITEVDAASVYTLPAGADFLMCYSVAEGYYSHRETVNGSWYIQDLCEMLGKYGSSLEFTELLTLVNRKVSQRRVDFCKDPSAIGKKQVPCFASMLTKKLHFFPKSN

[16] = molecular target: T4, E3 ubiquitin-protein ligase XIAP (Homo sapiens, UniProt P98170); assay: XIAP antagonists, biochemical, IAP family, fluorescence polarization (AID 1018); type: functional
[17] = molecular target: T4, E3 ubiquitin-protein ligase XIAP; assay: Counter Screen using XIAP-Bir3 for Chemical Antagonists of Bir1/2 domains of IAP-family anti-apoptotic proteins. [Related pubchem assays (depositor defined):AID1018, AID1449, AID1514, AID1638, AID1749, AID1750, AID488957, AID488963]
[18] = molecular target: T5, Mannose-6-phosphate isomerase (Homo sapiens, UniProt P34949); assay: inhibitors of human PMI, primary screen, biochemical, fluorescence intensity, coupled assay (AID 1209)
T5 sequence (P34949 whole entry): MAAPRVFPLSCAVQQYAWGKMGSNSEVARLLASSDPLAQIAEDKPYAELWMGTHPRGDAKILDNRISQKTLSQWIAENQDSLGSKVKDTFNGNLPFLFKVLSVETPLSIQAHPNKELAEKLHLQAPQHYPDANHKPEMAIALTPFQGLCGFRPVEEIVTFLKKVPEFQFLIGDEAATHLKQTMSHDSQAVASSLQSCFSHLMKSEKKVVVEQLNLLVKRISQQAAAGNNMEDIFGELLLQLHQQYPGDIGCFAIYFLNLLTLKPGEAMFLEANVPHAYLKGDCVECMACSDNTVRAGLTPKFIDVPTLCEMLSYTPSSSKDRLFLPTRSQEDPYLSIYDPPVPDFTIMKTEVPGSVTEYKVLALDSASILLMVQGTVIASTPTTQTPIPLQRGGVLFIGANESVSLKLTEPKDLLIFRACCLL

[19] = molecular target: Aryl hydrocarbon receptor (Homo sapiens, UniProt P35869); assay: Luminescence-based cell-based high throughput dose response assay for activators of the Aryl Hydrocarbon Receptor (AHR). [Related pubchem assays: 2796 (Primary screen (AHR activators in singlicate)), 2845 (Confirmation screen (AHR activators in triplicate)), 434939 (Counterscreen (PXR activators in triplicate)), 2804 (Summary (AHR activators))]; type: ADME
cells [20] = assay: cells
[21] = Luminescence Cell-Based Dose Confirmation HTS to Identify Inhibitors of Polyadenylation.; type: functional
[22] = inhibitors of Bluetongue virus cytopathic effect, confirmation, arbovirus, BSR cells (AID 1250); type: functional;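 note: protection from viral cytopathic effect measured as cell viability by ATP luminescence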
Staphylococcus aureus = assay: Inhibitors of Bacterial Quorum Sensing Structure Activity Relationship (SAR) Analysis: Dose Response Assay. [Related pubchem assays: 700, 527 ]; type: functional, organism-based
[23] = molecular target: Melanin-concentrating hormone receptor 1 (Homo sapiens, UniProt Q99705); assay: Late-stage fluorescence-based counterscreen for antagonists of the G-protein coupled receptor 7 (GPR7): cell-based dose response assay to identify antagonists of the melanin-concentrating hormone receptor 1 (MCHR1). [Related pubchem assays (depositor defined):AID1861, AID1880, AID1952, AID2148, AID2251, AID2257, AID485339]; type: functional;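 note: stimulated with 30 nM MCH peptide agonist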
Jurkat = assay: antigen receptor-induced NF-kB inhibitors, dose response, Jurkat, luciferase reporter, luminescence, B- and T-cell (AID 489004); type: functional, cell-based; details: Homo sapiens;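 note: NF-kB luciferase reporter Jurkat cells stimulated with PMA plus ionomycin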
Vero [24] = assay: cells; type: functional, cell-based; details: Chlorocebus sabaeus
[25] = Shn3 3'UTR reporter inhibitors, dose response, cell-based, Clone20 osteoblasts, firefly luciferase, cherry-picked (AID 624132); type: functional;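 note: firefly luciferase luminescence from reporter carrying the Shn3 3'UTR in osteoblasts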
[26] = cytotoxicity in HEK-293T NF-kB-Luc cells, dose response, cytotoxicity control for B/T-cell NF-kB inhibitor project, cell-based, uHTS hits (AID 489019); type: functional;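 note: IC50 reflects cytotoxicity as loss of cell viability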
[27] = NIH-3T3 fibroblast cytotoxicity, dose response, cytotoxicity control, cell-based, fluorescence, Alamar Blue, secondary assay (AID 2327); type: functional;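 note: NIH-3T3 mouse fibroblasts cultured with fluconazole at 8 µg/mL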
[28] = Luminescence Cell-Based Dose Response HTS to Identify Inhibitors of 5'UTR Stem-Loop Driven Prion Protein mRNA Translation in H4 Neuroglioblastoma Cells. [Related pubchem assays: 1827 (Project Summary), 1813 (Primary HTS)]; type: functional
[29] = C. albicans growth with fluconazole, confirmation, fluorescence, retest (AID 2467); type: functional, cell-based
[30] = control 3'UTR Renilla luciferase suppression, dose response, counter-screen for Shn3 inhibitor project, cell-based, Clone20-Shn3RL, cherry-picked (AID 624133); type: functional
[31] = molecular target: Dual specificity tyrosine-phosphorylation-regulated kinase 1A (Rattus norvegicus, UniProt Q63470); type: biochemical, Homo sapiens
[32] = microbe, parasite or virus in culture; type: functional; details: Mycobacterium tuberculosis
cells [33] = type: functional, cell-based
Vero [34] = assay: host cell cytotoxicity of antiviral hits, dose response, cytotoxicity control for West Nile virus antiviral project, secondary assay (AID 1650); type: functional; details: Chlorocebus sabaeus
[35] = inhibitors of SNCA 5'UTR-driven translation, confirmation, luminescence, H4 neuroglioblastoma cells, dose confirmation (AID 2454); type: functional, cell-based;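 note: H4 neuroglioblastoma cells carrying an alpha-synuclein 5'UTR luciferase reporter; potency for inhibition of the luciferase signal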
[36] = luciferase reporter signal reduction – luminescence, H4-C neuroglioblastoma cells, dose response (AID 2458); type: functional, cell-based;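 note: H4 neuroglioblastoma cells stably carrying a luciferase reporter gene fusion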
[37] = molecular target: Cyclin-dependent kinase 5/CDK5 activator 1 (Homo sapiens, UniProt Q00535); assay: CDK5/p35 kinase inhibitors, dose response, biochemical, cherry-picked samples, set 2 (AID 504545)
[38] = inhibitors of SNCA 5'UTR-driven reporter translation, confirmation, H4 neuroglioma cells, luminescence (AID 1988); type: functional, cell-based

T4 sequence (P98170 whole entry): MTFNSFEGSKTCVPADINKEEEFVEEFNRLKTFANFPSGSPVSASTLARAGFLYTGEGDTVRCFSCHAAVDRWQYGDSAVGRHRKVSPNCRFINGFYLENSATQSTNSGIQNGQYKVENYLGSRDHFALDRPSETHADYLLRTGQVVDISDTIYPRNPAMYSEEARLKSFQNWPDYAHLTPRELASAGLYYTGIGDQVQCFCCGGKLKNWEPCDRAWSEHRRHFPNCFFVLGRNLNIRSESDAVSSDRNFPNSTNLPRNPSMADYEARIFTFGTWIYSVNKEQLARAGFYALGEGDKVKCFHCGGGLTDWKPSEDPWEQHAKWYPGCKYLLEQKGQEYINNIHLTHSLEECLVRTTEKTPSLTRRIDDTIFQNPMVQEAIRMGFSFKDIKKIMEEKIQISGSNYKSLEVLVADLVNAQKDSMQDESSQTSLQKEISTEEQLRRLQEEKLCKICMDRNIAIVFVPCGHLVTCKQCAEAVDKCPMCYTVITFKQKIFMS
Chain of Estrogen receptor beta (Q92731 whole entry): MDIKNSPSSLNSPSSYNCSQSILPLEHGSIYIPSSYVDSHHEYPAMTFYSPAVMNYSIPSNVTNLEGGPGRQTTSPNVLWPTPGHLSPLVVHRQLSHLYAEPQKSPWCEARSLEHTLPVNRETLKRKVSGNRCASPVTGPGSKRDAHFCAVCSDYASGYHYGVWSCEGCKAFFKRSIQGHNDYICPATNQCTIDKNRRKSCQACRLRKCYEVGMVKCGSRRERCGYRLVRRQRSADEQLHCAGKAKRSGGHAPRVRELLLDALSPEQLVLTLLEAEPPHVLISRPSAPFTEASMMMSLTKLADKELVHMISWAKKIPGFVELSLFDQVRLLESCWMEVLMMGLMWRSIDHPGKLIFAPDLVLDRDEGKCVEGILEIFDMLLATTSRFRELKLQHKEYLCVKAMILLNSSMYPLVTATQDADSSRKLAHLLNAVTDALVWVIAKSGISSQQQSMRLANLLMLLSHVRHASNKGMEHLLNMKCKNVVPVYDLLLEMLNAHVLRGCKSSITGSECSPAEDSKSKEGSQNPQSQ
Chain of Protein Tat (P04608 whole entry): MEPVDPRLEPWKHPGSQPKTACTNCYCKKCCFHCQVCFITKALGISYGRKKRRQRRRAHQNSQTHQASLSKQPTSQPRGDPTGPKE
Chain of Melanin-concentrating hormone receptor 1 (Q99705 whole entry): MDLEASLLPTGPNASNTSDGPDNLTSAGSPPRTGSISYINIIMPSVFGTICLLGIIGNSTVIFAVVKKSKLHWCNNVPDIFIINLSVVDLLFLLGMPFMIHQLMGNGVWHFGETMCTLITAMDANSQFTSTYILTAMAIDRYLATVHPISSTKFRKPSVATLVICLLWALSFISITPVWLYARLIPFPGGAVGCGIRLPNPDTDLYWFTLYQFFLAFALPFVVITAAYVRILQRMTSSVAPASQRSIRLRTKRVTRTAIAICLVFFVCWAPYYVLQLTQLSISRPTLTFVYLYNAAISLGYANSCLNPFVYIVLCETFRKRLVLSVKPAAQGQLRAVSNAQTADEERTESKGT
Chain of Induced myeloid leukemia cell differentiation protein Mcl-1 (Q07820 whole entry): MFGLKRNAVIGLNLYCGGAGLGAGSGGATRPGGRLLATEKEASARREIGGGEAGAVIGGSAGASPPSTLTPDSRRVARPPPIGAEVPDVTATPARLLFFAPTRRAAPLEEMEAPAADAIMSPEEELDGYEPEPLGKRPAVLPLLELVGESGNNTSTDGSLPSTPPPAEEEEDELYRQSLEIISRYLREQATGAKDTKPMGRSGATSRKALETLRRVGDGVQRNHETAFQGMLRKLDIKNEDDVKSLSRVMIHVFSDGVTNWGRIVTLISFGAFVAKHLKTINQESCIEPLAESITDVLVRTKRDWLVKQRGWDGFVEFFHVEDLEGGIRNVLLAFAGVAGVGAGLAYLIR
Chain of Peroxisome proliferator-activated receptor gamma/Nuclear receptor coactivator 1 (P37231 whole entry): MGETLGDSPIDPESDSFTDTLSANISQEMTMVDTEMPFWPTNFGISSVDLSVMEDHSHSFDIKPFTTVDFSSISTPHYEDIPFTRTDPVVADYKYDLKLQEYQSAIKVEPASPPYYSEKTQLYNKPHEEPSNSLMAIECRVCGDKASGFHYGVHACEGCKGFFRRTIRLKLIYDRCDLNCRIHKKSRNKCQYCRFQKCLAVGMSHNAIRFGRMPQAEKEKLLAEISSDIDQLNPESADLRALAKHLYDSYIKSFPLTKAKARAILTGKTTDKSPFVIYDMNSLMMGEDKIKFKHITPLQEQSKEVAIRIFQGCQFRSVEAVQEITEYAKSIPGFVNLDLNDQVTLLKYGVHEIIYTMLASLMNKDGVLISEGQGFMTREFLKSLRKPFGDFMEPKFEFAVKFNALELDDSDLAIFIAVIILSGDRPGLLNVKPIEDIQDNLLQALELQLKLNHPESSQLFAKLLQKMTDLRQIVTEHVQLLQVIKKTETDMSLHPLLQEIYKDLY
Chain of Peroxisome proliferator-activated receptor gamma/Nuclear receptor coactivator 1 (Q15788 whole entry, further chain): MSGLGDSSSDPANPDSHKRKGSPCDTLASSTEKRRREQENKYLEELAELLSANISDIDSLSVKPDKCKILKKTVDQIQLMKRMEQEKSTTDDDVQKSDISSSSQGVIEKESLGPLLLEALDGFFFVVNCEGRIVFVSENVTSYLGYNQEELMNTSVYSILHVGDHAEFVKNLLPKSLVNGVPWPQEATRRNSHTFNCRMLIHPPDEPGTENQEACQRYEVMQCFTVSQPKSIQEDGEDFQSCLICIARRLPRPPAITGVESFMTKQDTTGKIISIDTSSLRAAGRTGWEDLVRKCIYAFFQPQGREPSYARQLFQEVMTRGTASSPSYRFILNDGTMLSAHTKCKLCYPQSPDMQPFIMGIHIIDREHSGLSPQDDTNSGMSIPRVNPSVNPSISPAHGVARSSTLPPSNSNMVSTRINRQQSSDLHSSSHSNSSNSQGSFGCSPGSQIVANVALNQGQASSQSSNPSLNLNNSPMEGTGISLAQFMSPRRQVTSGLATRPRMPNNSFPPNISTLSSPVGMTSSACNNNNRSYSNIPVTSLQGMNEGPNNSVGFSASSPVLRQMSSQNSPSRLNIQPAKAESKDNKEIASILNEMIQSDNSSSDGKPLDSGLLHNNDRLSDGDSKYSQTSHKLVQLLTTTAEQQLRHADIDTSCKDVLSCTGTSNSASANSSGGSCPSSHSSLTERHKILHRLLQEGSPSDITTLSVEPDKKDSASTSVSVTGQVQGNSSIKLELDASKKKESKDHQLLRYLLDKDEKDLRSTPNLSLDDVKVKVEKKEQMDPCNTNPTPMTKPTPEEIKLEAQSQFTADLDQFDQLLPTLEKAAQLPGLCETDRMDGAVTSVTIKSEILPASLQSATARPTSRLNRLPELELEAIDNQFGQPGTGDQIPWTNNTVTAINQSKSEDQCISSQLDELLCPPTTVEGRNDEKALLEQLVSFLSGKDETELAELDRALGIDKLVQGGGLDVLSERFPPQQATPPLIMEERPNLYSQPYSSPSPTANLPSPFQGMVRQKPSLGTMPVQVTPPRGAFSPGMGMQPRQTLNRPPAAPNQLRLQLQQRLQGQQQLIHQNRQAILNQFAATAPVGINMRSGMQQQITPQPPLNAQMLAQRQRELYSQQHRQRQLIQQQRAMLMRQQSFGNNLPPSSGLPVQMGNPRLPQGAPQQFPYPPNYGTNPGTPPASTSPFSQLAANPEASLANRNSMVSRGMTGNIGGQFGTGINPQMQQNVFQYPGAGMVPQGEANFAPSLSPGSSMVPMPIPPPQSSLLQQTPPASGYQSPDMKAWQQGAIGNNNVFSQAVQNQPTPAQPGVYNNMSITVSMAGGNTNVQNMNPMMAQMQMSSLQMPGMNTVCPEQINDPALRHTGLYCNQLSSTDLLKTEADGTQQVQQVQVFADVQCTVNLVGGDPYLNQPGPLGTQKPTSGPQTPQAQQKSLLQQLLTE
Chain of Neuropeptide Y receptor type 1 (P25929 whole entry, the tested form may be a part): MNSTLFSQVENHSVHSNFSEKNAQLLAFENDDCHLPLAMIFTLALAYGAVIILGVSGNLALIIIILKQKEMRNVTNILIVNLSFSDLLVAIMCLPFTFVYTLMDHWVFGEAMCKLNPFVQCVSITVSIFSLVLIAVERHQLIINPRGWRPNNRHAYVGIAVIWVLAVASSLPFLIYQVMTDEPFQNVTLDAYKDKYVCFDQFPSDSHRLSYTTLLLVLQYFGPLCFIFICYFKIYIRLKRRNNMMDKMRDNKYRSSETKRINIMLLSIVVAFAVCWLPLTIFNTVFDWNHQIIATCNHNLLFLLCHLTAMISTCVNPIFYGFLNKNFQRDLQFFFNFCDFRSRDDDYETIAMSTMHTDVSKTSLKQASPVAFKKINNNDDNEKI
Chain of Aryl hydrocarbon receptor (P35869 whole entry): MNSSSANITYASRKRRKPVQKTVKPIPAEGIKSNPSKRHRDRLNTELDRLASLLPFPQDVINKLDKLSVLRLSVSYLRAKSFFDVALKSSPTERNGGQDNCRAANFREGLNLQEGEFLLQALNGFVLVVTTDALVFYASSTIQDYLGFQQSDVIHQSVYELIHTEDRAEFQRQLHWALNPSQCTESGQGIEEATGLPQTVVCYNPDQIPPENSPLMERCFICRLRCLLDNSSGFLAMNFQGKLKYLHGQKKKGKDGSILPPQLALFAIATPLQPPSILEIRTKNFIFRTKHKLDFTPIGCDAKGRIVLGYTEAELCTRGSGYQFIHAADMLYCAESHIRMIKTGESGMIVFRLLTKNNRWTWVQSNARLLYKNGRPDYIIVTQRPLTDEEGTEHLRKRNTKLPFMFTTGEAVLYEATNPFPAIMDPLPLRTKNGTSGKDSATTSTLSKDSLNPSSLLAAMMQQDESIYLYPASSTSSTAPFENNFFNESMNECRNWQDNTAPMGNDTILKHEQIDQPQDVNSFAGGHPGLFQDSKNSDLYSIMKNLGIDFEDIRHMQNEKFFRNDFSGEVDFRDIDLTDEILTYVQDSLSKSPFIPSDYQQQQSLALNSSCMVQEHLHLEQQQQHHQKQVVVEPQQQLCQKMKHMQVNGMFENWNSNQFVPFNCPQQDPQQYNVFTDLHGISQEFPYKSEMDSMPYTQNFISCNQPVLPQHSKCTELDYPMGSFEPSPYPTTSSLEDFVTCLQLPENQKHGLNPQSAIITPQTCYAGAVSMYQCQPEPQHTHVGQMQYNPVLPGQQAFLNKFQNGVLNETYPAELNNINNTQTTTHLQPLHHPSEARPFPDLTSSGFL

## N#Cc1c(NC(=O)c2ccccc2Cl)n(Cc2ccccc2)c2nc3ccccc3nc12
[1]
  EC50: > 79.4 µM (not active)
[2]
  IC50: > 50 µM (not active)
[3]
  EC50: > 26.5 µM (not active)
[4]
  IC50: > 50 µM (not active)
[5]
  EC50: 9.38 µM (active)

## CSc1nc(N(CCO)CCO)c2sc3nc(-c4ccco4)c4c(c3c2n1)CCC4
Estrogen receptor beta
  IC50: > 50 µM (not active)
[6]
  IC50: > 20 µM (inactive)
Protein Tat
  IC50: 57.3 µM (inconclusive)
[7]
  IC50: > 34.6 µM (active)
[8]
  IC50: > 10 µM (not active)
[9]
  EC50: 5.95 µM (active)
[10]
  EC50: 12.6 µM (active)
[11]
  CC50: > 40 µM (active)

## COc1ccc(-c2nnc(SCC(=O)c3cc(C)n(Cc4cccs4)c3C)o2)cc1
Estrogen receptor
  EC50: 7.51 µM (active)

## O=C(COc1ccccc1CNCc1ccccc1)Nc1ccccc1
[12]
  IC50: 9.67 µM (active)
[13]
  IC50: 5.16 µM (active)

## COc1cccc(C(=O)OCC(=O)Nc2sc3c(c2C(N)=O)CCC3)c1O
[14]
  IC50: 3.73 µM (active)
[15]
  IC50: 50.2 µM (not active)
Bcl-2-like protein 1
  IC50: > 109 µM (not active)
Caspase-6
  AC50: 17.7 µM (active)

## COc1ccc(CC(=O)Oc2cc(C)nc(O)c2[N+](=O)[O-])cc1
[16]
  IC50: > 100 µM (not active)
[17]
  IC50: > 100 µM (inactive)

## CC(C)c1ccc(N2C(=O)CC(Sc3nc[nH]n3)C2=O)cc1 (stereo not given)
[18]
  IC50: > 50 µM (not active)

## NNc1nc(O)c2c3c(sc2n1)-c1ccccc1CC3
[19]
  EC50: 0.373 µM (active)

## O=C1c2ccccc2C(Nc2cccnc2)N1Cc1ccc2c(c1)OCO2 (stereo not given)
Cells [20]
  IC50: 21.6 µM (active)

## O=C(NCCC1=CCCCC1)c1c(O)nc2ccccn2c1=O
[21]
  EC50: > 120 µM (not active)

## COc1ccc2oc3cc(C)[n+]([O-])c(-c4ccc(C)cc4)c3c2c1
[22]
  IC50: 23 µM (active)

## O=C(Nc1ccc2c(c1)OCO2)C(c1ccccc1)N1CCC(Cc2ccccc2)CC1 (stereo not given)
Staphylococcus aureus
  IC50: 0.802 µM (active)

## COc1ccc(Oc2c(Cl)cnn(-c3ccc(C(C)C)cc3)c2=O)cc1
[23]
  IC50: 3.1 µM (active)

## OCCCNc1cc(-c2ccnc(Nc3cccc(Cl)c3)n2)ccn1
Jurkat
  IC50: < 0.16 µM (active)
Vero [24]
  IC50: > 25 µM (active)
[25]
  AC50: < 0.26 µM (active)
[26]
  IC50: 35.3 µM (inactive)
[27]
  EC50: 0.269 µM (inconclusive)
[28]
  EC50: < 0.1 µM (active)
[29]
  EC50: 0.666 µM (active)
[30]
  AC50: 0.375 µM (active)
[31]
  AC50: 0.013 µM (active)
[32]
  CC50: < 0.08 µM (active)
Cells [33]
  EC50: 0.076 µM (active)
Vero [34]
  CC50: 0.05 µM (active)
[35]
  EC50: 0.182 µM (active)
[36]
  EC50: 0.074 µM (active)
[37]
  AC50: 0.377 µM (active)
[38]
  EC50: < 0.1 µM (active)
